This note sets out measurements from patent US9573899B2, “USP7 inhibitor compounds and methods of use” (Genentech, Inc., priority 2015, dated 2017).

The structures appear in SMILES notation.

Experiment [1] has as its system p53 and p21 in HCT116 colon cancer cell lines. Put plainly: Western blot of p53 and p21 in isogenic HCT116 cell lines (FIG. 2A). The class given is cell-based, Human. The following applies: isogenic HCT116: wild-type, USP7 null. The procedure:
In 24-well plates, 0.10-0.15×10^6 (adherent) or 0.5×10^6 (suspension) cells were treated with 15 μM or 2.5 μM compounds, respectively, for 24 h in low serum prior to lysis for Western Blot analysis.
(A western blot detects proteins with antibodies after separation by electrophoresis.)

Experiment [2] relates to MDM2 in MCF7 breast cancer cells. Put plainly: MDM2 turnover in MCF7 cells with cycloheximide (FIG. 3A). The class given is cell-based. As to conditions: 15 μM, in the presence of cycloheximide (CHX). How it is done: In 24-well plates, 0.15×10^6 MCF-7 cells were treated for a total of 8 h with DMSO or compounds (15 μM). During that 8 h, cycloheximide (CHX) was added for the indicated times prior to harvest.

Experiment [3] deals with MCF-7, U Os, normal osteoblast, MDA-MB157 and SaOs cell lines. Put plainly: CellTiter-Glo viability of tumor, matched normal and p53 null cell lines (FIG. 9). Format: cell-based. How it is done: 2,500-5,000 cells were seeded in 1-well of a 96-well plate (Corning; 3904). The following day, the media was changed from normal (10%) to low serum (0.5%) containing vehicle (DMSO) or compounds. 16-24 h later FBS was added to each well to bring serum levels back to normal (10%). Cells were then allowed to grow for 2 days. All treatments were done in triplicate.
Seventy two hours after compounds were added, CellTitre Glo (CTG) reagent was added following the protocol provided by the manufacturer (Promega). In the experiment to test compound dependency on USP7, 3× more USP7 null cells were plated per well (7,500 vs. 2,500 for wild-type (WT) cells), given the slower proliferation of USP7 null cells. For the multiple myeloma experiment, cells seeded in low serum and treated with compounds immediately. Twenty four hours later, serum was added back to normal levels. CTG assay was done 24 h later i.e. 48 h after compounds were added instead of 72 hrs later for the adherent cells.

For a further experiment, the target named is T1, USP47 (Homo sapiens, UniProt Q96K76).
T1 sequence (Q96K76 1-1375): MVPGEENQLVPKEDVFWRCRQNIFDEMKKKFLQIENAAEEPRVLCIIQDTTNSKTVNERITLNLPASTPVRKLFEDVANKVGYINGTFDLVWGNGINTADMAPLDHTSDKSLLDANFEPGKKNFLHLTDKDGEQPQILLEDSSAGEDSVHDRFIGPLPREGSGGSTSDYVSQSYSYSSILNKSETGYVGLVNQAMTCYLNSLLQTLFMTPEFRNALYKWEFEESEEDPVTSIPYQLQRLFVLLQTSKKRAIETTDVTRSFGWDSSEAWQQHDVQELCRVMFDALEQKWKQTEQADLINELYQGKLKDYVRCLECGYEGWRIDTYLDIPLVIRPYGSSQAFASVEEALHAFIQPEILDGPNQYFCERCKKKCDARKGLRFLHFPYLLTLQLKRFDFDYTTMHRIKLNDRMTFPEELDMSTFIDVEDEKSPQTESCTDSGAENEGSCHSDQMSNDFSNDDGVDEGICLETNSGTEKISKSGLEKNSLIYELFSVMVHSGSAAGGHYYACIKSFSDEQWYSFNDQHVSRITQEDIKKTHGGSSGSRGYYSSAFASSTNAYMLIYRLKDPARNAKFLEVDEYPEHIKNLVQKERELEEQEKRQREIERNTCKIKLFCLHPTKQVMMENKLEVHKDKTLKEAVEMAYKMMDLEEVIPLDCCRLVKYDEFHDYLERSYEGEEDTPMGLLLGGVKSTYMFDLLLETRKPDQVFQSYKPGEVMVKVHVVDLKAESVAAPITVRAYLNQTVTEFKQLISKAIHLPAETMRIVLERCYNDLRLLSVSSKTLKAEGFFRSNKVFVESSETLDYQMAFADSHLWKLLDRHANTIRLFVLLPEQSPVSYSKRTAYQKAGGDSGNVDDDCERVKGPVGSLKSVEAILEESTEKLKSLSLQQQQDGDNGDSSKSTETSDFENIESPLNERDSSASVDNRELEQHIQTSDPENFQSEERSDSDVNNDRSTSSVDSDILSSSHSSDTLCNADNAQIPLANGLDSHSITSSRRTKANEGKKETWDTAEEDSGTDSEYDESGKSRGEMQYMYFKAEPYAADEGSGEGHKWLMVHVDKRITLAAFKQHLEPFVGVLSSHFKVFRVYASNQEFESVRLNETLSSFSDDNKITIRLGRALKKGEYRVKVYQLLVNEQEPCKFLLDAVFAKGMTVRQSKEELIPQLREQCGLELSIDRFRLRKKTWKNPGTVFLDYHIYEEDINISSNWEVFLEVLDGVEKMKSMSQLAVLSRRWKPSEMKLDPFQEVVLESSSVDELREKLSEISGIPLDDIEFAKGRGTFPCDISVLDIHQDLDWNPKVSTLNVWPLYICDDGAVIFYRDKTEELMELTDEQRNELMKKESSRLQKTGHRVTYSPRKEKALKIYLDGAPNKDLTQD
Put plainly: Ub-Rho110 DUB assay, Table 2, USP47. The class given is biochemical.

The IC50 is the concentration at which inhibition is half-maximal. On to `CCc1c(-c2ccc3[nH]ncc3c2)cnc(N)c1-c1ccc(O)cc1` [Compound 88, 4-[2-amino-4-ethyl-5-(1H-indazol-5-yl)-3-pyridyl]phenol], for which, in experiment [1], the “stabilization of p53 and p21 (western blot)” value was “stabilize p53 and p21”. For the same molecule, the “destabilizing effect on MDM2 (western blot)” value in experiment [2] is recorded as “destabilizing effects”. Further, in experiment [3] (MCF-7 and U Os, relative to compound 89), the “cell viability (CellTiter-Glo), wild-type p53 tumor cell lines” value is reported as “decreased viability”. For the same molecule, the “cell viability (CellTiter-Glo), matched normal and p53 null cell lines” value in experiment [3] (normal osteoblast cell lines, p53 null MDA-MB157 and SaOs) was “do not show similar decreases in cell viability”. In addition, the IC50 at USP47 was > 200 µM.
